Assay results reported in patent US20230000842A1, “METHODS OF TREATING CARTILAGE DISORDERS THROUGH INHIBITION OF CLK AND DYRK” (SAMUMED, LLC, priority 2019, published 2023).

Legend:
CLK2 kinase = CLK2 kinase (Homo sapiens, UniProt P49760); assay: CLK2 kinase activity assay (Z-lyte FRET); format: biochemical; conditions: Z-lyte Ser/Thr 6 peptide, 60 μM ATP, 1 h at room temperature;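 note: FRET read-out as coumarin to fluorescein emission ratio, unphosphorylated peptide as 0% and phosphorylated peptide as 100% controls, duplicate reactions, non-linear regression fit of dose-response curves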
CLK2 kinase, sequence (P49760 whole entry): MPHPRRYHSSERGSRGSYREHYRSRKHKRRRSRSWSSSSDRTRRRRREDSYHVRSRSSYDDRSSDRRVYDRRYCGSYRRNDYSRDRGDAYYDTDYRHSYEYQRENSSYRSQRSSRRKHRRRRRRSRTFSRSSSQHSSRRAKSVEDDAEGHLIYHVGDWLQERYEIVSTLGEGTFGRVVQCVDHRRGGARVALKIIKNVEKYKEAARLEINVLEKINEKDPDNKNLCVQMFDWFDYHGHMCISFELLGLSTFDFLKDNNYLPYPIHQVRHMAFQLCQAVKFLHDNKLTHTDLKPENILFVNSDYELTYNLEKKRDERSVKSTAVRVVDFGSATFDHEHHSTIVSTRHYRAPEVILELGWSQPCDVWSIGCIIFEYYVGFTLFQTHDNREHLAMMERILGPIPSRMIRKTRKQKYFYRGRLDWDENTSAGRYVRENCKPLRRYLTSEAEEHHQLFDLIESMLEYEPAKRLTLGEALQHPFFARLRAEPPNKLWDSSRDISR

CLK3 kinase = CLK3 kinase (Homo sapiens, UniProt P49761); assay: CLK3 kinase activity assay (Z-lyte FRET); format: biochemical; conditions: Z-lyte Ser/Thr 18 peptide, 156 μM ATP, 1 h at room temperature;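 note: kinase activity read as coumarin/fluorescein emission ratio by FRET, unphosphorylated peptide as 0% and phosphorylated peptide as 100% control, values from non-linear regression of dose-response curves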
CLK3 kinase, sequence (P49761 whole entry): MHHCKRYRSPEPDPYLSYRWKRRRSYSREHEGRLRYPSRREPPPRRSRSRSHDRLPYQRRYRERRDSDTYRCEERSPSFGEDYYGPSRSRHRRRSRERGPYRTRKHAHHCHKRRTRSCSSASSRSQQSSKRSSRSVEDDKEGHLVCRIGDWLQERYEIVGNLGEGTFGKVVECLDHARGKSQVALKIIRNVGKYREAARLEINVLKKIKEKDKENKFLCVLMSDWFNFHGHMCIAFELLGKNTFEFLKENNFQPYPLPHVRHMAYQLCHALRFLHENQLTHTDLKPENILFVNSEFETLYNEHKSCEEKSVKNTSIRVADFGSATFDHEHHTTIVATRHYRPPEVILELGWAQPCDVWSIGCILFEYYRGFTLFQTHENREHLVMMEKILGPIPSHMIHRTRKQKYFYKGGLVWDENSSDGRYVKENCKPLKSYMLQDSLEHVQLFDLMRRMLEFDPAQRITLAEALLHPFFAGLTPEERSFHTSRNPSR

[1] = tested on: MMP-3 levels in supernatant of chondrocytes stimulated with IL1-β; assay: Chondrocyte protection assay compound screening (MMP-3 LANCE Ultra); format: cell-based, human; conditions: Homo sapiens, Chondrocyte, IL1-β 10 ng/mL overnight, 11-point curves from 3 μM to 0.05 nM; for Emax: read-out: Maximum % Inhibition
Outline: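 Primary human chondrocytes (passage 2–5) in differentiation medium were stimulated with 10 ng/mL IL1-β for an overnight incubation at 37 °C. MMP-3 in 1:7-diluted supernatant was read by TR-FRET immunoassay against a standard curve, normalised to IL1-β-stimulated wells; EC50 and maximum % inhibition came from nonlinear regression.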

[2] = tested on: Wnt pathway activity (SW480 colon carcinoma cells stably expressing the Sp5-Luc reporter); assay: Wnt pathway activity screening assay (Sp5-Luc reporter gene assay); conditions: Homo sapiens, SW480, Table 4; SW480 cells stably expressing Sp5-Luc reporter, 10-point dose-response from 10 μM, 36 to 48 hours

| Structure (SMILES) | EC50 (CLK2 kinase) | EC50 (CLK3 kinase) | EC50 [2] | EC50 [1] | Emax [1] |
| --- | --- | --- | --- | --- | --- |
| CC#CC(=O)Nc1cc2cc(-c3cnn(C)c3)ccc2cn1 [compound 539] | 7 nM | 123 nM | 513 nM | 32.8 nM | 42.3% |
| CN1CCC(Nc2cc(C(=O)Nc3cc4cc(-c5cnn(C)c5)ccc4cn3)ccn2)CC1 [compound 555] | 1 nM | 21 nM | 65.6 nM | ≥ 3000 nM | 85.1% |
| CC(C)OC(=O)N1CCC(n2cc(C(=O)Nc3cc4cc(-c5cnn(C)c5)ccc4cn3)cn2)CC1 [compound 562] | 1 nM | 20 nM | 54.5 nM | 88.1 nM | 34.8% |
| CC(C)N1CCC(c2nc(C(=O)Nc3cc4cc(-c5cnn(C)c5)ccc4cn3)co2)CC1 [compound 563] | 5 nM | 26 nM | 80 nM | 57.3 nM | 72.4% |
| CO[C@H]1CC[C@H](C(=O)Nc2cc3cc(-c4cnn(C)c4CN4CCCCC4)ccc3cn2)CC1 [compound 569] | 8 nM | 164 nM | 471 nM | ≥ 3000 nM | 0.2% |
| Cn1ncc(-c2ccc3cnc(NC(=O)[C@H]4CC[C@H](CO)CC4)cc3c2)c1CN1CCCCC1 [compound 570] | 9 nM | 143 nM | 594 nM | ≥ 3000 nM | 80.6% |
| Cn1ncc(-c2ccc3cnc(NC(=O)C4CCN(C(=O)c5ccccc5)CC4)cc3c2)c1CN1CCCCC1 [compound 571] | 7 nM | 318 nM | 706 nM | 35 nM | 51% |
| O=C(Nc1cc2cc(-c3cnn4c3CCNC4)ccc2cn1)c1ccc(OC(F)F)cc1 [compound 574] | 2 nM | 200 nM | 375 nM | 1920 nM | 59.5% |
| CC(C)N1CCC(n2cc(C(=O)Nc3cc4cc(-c5cn(C)nn5)ccc4cn3)cn2)CC1 [compound 579] | 2 nM | 19 nM | 32.7 nM | 492 nM | 91% |
| Cc1nnc(C(=O)Nc2cc3cc(-c4cncn4C)ccc3cn2)s1 [compound 584] | 6 nM | 177 nM | 1890 nM | 71.5 nM | 38.6% |
| CC(C)n1cc(C(=O)Nc2cc3cc(-c4cncn4C)ccc3cn2)cn1 [compound 585] | 1 nM | 13 nM | 34.8 nM | 1430 nM | 77.9% |
| CC(C)n1cc(C(=O)Nc2cc3cc(-c4cncn4C(C)C)ccc3cn2)cn1 [compound 586] | 7 nM | 23 nM | 115 nM | 4.6 nM | 41.7% |
| Cc1ncc(-c2ccc3cnc(NC(=O)C4(F)CC4)cc3c2)n1C [compound 587] | 8 nM | 678 nM | 2210 nM | 18.7 nM |  |
| Cc1ncc(C(=O)Nc2cc3cc(-c4cnc(C)n4C)ccc3cn2)s1 [compound 589] | 2 nM | 31 nM | 102 nM | ≥ 3000 nM | 43.5% |
| CN1CCN(c2cc(C(=O)Nc3cc4cc(-c5ccc(N)nc5)ccc4cn3)ccn2)CC1 [compound 596] | 1 nM | 42 nM | 710 nM | 798 nM | 39.9% |
| CC(C)Nc1cncc(-c2ccc3cnc(NC(=O)c4cccc(C5CCN(C)CC5)c4)cc3c2)n1 [compound 599] | 2 nM | 11 nM | 132 nM | ≥ 3000 nM | 66.4% |
| O=C(Nc1cc2cc(-c3cncc(NC4CCNCC4)n3)ccc2cn1)C1CCCCC1 [compound 601] | 2 nM | 59 nM | 319 nM | ≥ 3000 nM | 91.6% |
| O=C(Nc1cc2cc(-c3cncc(NCC4(F)CNC4)n3)ccc2cn1)C1CC1 [compound 602] | 2 nM | 18 nM | 119 nM | 897 nM | 99.5% |
| CN1CCN(c2cc(C(=O)Nc3cc4nc(-c5cnn(C)c5)ccc4cn3)ccn2)CC1 [compound 606] | 4 nM | 60 nM | 102 nM | ≥ 3000 nM | 76.1% |
| Cn1cc(-c2ccc3cnc(NC(=O)c4ccc5nccnc5c4)cc3n2)cn1 [compound 608] | 8 nM | 141 nM | 447 nM | ≥ 3000 nM | 18.3% |
| CC(C)OC(=O)N1CCC(n2cc(C(=O)Nc3cc4cc(-c5cnn(C)c5)ncc4cn3)cn2)CC1 [compound 609] | 6 nM | 61 nM | 824 nM | 154 nM | 50.2% |
| CN1CCC2(CC1)CN(c1cc(C(=O)Nc3cc4cc(-c5cnn(C)c5CN5CCCCC5)cnc4cn3)ccn1)C2 [compound 610] | 9 nM | 31 nM | 607 nM | ≥ 3000 nM | 30.4% |
| Cc1ncc(C(=O)Nc2cc3nc(-c4cnc(C)n4C)ccc3cn2)s1 [compound 611] | 3 nM | 31 nM | 107 nM | 8.7 nM | 68.3% |

The next lines start with results.

| EC50 (CLK2 kinase) | EC50 (CLK3 kinase) | EC50 [2] | Structure (SMILES) | EC50 [1] | Emax [1] |
| --- | --- | --- | --- | --- | --- |
| 5 nM | 17 nM | > 10000 nM | O=C(Nc1cncc(-c2ccc3[nH]nc(-c4nc5c(-c6cccnc6)cncc5[nH]4)c3c2)c1)c1ccccc1 [compound 192] | 1.9 nM | 95.5% |
| 2 nM | 136 nM | 2130 nM | CCNCc1cncc(-c2ccc3[nH]nc(-c4nc5c(-c6ccccn6)nccc5[nH]4)c3c2)c1 [compound 199] | 2.4 nM | 80.9% |
| 1 nM | 182 nM | 344 nM | NC1CN(c2cncc(-c3ccc4[nH]nc(-c5nc6ccncc6[nH]5)c4c3)c2)C1 [compound 205] | 20.8 nM | 61.5% |
| 2 nM | 16 nM | 4570 nM | Cc1cn(-c2cncc3[nH]c(-c4n[nH]c5ccc(-c6cncc(NC(=O)CC(C)C)c6)cc45)nc23)cn1 [compound 225] | 845 nM | 89.2% |
| 4 nM | 34 nM | 162 nM | FC1(F)CCN(Cc2cncc(-c3cnc4[nH]nc(-c5nc6c(-c7ccoc7)nccc6[nH]5)c4c3)c2)C1 [compound 241] | 0.1 nM | 87.1% |
| 1 nM | 66 nM | > 10000 nM | O=C(CC1CCNCC1)Nc1cncc(-c2ccc3[nH]nc(-c4nc5c(-c6ccsc6)nccc5[nH]4)c3n2)c1 [compound 248] | ≥ 3000 nM | 40.7% |
| 2 nM | 35 nM | 470 nM | Fc1ccc(-c2cncc3[nH]c(-c4n[nH]c5cnc(-c6cncc(CN7CCCC7)c6)cc45)nc23)s1 [compound 264] | ≥ 3000 nM | 81% |
| 4 nM | 44 nM | 620 nM | Cc1ncc(-c2ccc3[nH]nc(-c4nc5c(-c6cc(F)cc(NCCN(C)C)c6)ccnc5[nH]4)c3n2)n1C [compound 287] | 12.8 nM | 74.2% |
| 2 nM | 17 nM | 96.6 nM | Cc1ccncc1-c1cc2c(-c3nc4c(-c5cc(F)cc(CNS(C)(=O)=O)c5)cncc4[nH]3)n[nH]c2cn1 [compound 290] | 604 nM |  |
| 1 nM | 29 nM | 18.3 nM | CN1CCC(Oc2ccc3[nH]c(-c4n[nH]c5ccc(-c6cnn(C)c6)cc45)nc3c2)CC1 [compound 299] | 170 nM | 100% |
| 1 nM | 18 nM | 285 nM | O=C(Nc1cncc(-c2ccc3[nH]nc(-c4cc5cnccc5[nH]4)c3c2)c1)C1CCCCC1 [compound 431] | 6.7 nM | 100% |
| 2 nM | 19 nM | 165 nM | c1cnc2cc(-c3n[nH]c4ccc(-c5cncc(CN6CCCCC6)c5)cc34)[nH]c2c1 [compound 449] | 319 nM | 100% |
| 2 nM | 37 nM | 1320 nM | CN(C)C1CN(c2ncc(C(=O)Nc3cc4cc(-c5cnn(C)c5)ccc4cn3)s2)C1 [compound 564] | 71.4 nM | 0% |
| 9 nM | 94 nM | 382 nM | O=C(Nc1cc2cc(-c3cncc(CN4CCC(O)CC4)c3)ccc2cn1)c1ccc(F)cc1 [compound 597] | 2.9 nM | 3.7% |
| 2 nM | 7 nM | 13.3 nM | CN1CCC(n2cc(C(=O)Nc3cc4cc(-c5cncc6[nH]ccc56)ccc4cn3)cn2)CC1 [compound 604] | 40.1 nM | 57.4% |
| 2 nM | 9 nM | 26.8 nM | CN1CCC(n2cc(C(=O)Nc3cc4cc(-c5cnc6cc[nH]c6c5)ccc4cn3)cn2)CC1 [compound 605] | ≥ 3000 nM | 59.9% |
| 6 nM | 135 nM | 468 nM | CN1CCN(c2cc(C(=O)Nc3ncc4ccc(-c5cnn(C)c5)cc4n3)ccn2)CC1 [compound 607] | 417 nM | 79.7% |
